Assay results reported in patent US10076533B2, “Acyclic nucleoside phosphonate diesters” (The Regents of the University of California, priority 2013, dated 2018).
Read-outs that look alike come from different tables or passages of the source.

Assays:
HIV-192US727 = experiment: Anti-HIV assay in human PBMC, supernatant reverse transcriptase activity
2.2.15 cells = experiment: Cytotoxicity in 2.2.15 cells by neutral red uptake; settings: 2.2.15 cells, neutral red uptake
[1] = system: Human peripheral blood monocyte (PBMC); experiment: Viability of PBMC by XTT reduction; settings: human PBMC, XTT reduction
Hepatitis B virus = experiment: HBV replication in 2.2.15 cells, HBV DNA blot hybridization; settings: HBV replication in 2.2.15 cells, 7 days treatment, HBV DNA blot hybridization
[2] = system: Copenhagen strain of vaccinia virus; experiment: microbe, parasite or virus in culture; assay type: cell-based; settings: HFF cells infected with vaccinia virus (Copenhagen), 7 days, crystal violet; read-out: EC50
[3] = system: human foreskin fibroblast (HFF) cells; settings: uninfected HFF cells, […]
[4] = system: human foreskin fibroblast (HFF) cells
HPV-11 = HPV-11 origin replication in HEK 293 cells, qPCR; assay type: cell-based; settings: HPV-11 origin replication in HEK 293 cells, 48 hr, qPCR
Description: (§1) An origin-containing plasmid was co-transfected with HPV-11 E1 and E2 protein expression vectors into HEK 293 cells. At 4 hr post-transfection, cells were treated with compound dilutions and the cells were incubated for 48 hr. Replication of the virus origin was detected with DpnI and exonuclease III to remove unreplicated input bacterial plasmid DNA. Remaining replicated DNA was quantified by qPCR. Toxicity was determined by trypan blue exclusion.

[5] = system: BK virus (Gardner strain); experiment: Antiviral effect in HFF cells infected with BK virus (Gardner strain), qPCR; settings: HFF cells infected with BK virus (Gardner strain), 14 days, qPCR
[6] = system: Human peripheral blood monocyte (PBMC)
[7] = system: human foreskin fibroblast (HFF) cells; experiment: Cytotoxicity in HFF cells in parallel to HSV-1 assay; settings: HFF cells, in parallel to HSV-1 assay
[8] = system: human foreskin fibroblast (HFF) cells; experiment: Cytotoxicity in HFF cells in parallel to HSV-2 assay; settings: HFF cells
MT-2 cells = experiment: Cytotoxicity in MT-2 cells, flow cytometry cell counts and viability; assay type: cell-based, human; settings: MT-2 cells, 72 hrs; read-out: CC50
Description: MT-2 cells were incubated with drug for 72 hrs and harvested. Flow count beads (Beckman Coulter, Miami, Fla.) were added to the cell suspension followed by propidium iodide staining and analysis using flow cytometer and the 50% cytotoxic concentration (CC50) was calculated from the cell counts and viability.

MAD-1 strain of JC virus = experiment: Antiviral effect in JC virus (MAD-1) infected COS7 cells, qPCR; settings: COS7 cells infected with JC virus (MAD-1), 7 days, qPCR
HIV-1LAI = experiment: HIV antiviral assay in MT-2 cells, p24 reduction
HEK 293 cells = experiment: Toxicity in HEK 293 cells by trypan blue exclusion (HPV-11 example); assay type: cell-based
Description: as §1

COS7 cells = settings: uninfected COS7 cells, […]
[9] = system: human foreskin fibroblast (HFF) cells; experiment: Cytotoxicity in HFF cells in parallel to cytomegalovirus assay; settings: HFF cells, in parallel to cytomegalovirus assay
[10] = system: AD169 strain of human cytomegalovirus; experiment: Antiviral effect in HFF cells infected with human cytomegalovirus (AD169); settings: HFF cells infected with human cytomegalovirus (AD169), 14 days, crystal violet

CCCCCCCCCCCCCCCCCCOCCOP(=O)(CO[C@H](C)Cn1cnc2c(N)ncnc21)Oc1ccccc1 (stereo partly drawn) [Compound 92, phenyl octadecyloxyethyl 9-(R)-[(2-phosphonomethoxy)propyl]adenine]
EC50 (HIV-192US727; HIV-192US727 infected human PBMC, 7 days, supernatant reverse transcriptase activity): < 0.005 µM | CC50 (2.2.15 cells): 68 µM | CC50 [1]: 24.1 µM | EC50 (Hepatitis B virus): 7.3 µM

CCCCCCCCCCCCCCCCCCOC[C@H](COP(=O)(CO[C@H](CO)Cn1cnc2c(N)ncnc21)OCc1ccccc1)OCc1ccccc1 (stereo partly drawn) [Compound 230, benzyl 1-O-octadecyl-2-O-benzyl-sn-glyceryl 9-(S)-[(3-hydroxypropyl-2-phosphonomethoxy)propyl]adenine]
EC50 [2]: 0.06 µM | EC50 (HIV-192US727): < 0.1 µM | CC50 [3]: 19.6 µM | CC50 [4]: 97.5 µM | EC50 (HPV-11): 0.56 µM | EC50 [5]: 0.06 µM | CC50 [6]: 0.55 µM | CC50 [7]: 82.2 µM | CC50 [8]: 37.1 µM | CC50 (MT-2 cells): 19 ± 2.6 µM | EC50 (MAD-1 strain of JC virus): > 4 µM | Selectivity Index (HIV-1LAI; CC50/EC50, MT-2 cells): 380 | EC50 (HIV-1LAI; HIV-1 infected MT-2 cells, p24 reduction, four days): 0.05 ± 0.03 µM | CC50 (HEK 293 cells): > 10 µM | CC50 (COS7 cells): 18.4 µM | CC50 [9]: 3.72 µM | EC50 [10]: < 0.03 µM
